Results: US10508104B2, “6-hydroxy-5-(phenyl/heteroarylsulfonyl)pyrimidin-4(1H)-one as APJ agonists” (Bristol-Myers Squibb Company, priority 2016, dated 2019)

target: human APJ receptor (Homo sapiens (Human), UniProt P35414); test: Intracellular cAMP accumulation assay (APJ hcAMP, HTRF); type: cell-based; conditions: HEK293 cells stably expressing human APJ receptor; inhibition of forskolin-mediated cAMP production; read-out: Human APJ cAMP EC50 Potency range
Procedure: Intracellular cAMP Accumulation Assay
HEK293 cells stably expressing human APJ receptor were used to assess the activity of compounds. Cultured cells were detached and resuspended in the cAMP Homogeneous Time-Resolved Fluorescence (HTRF) assay buffer (Cisbio cat; #62AM4PEJ). The assay was performed in 384-well assay plates (Perkin-Elmer; cat #6008289) according to assay protocol provided by the manufacturer. Serial dilutions of a compound together with assay buffer containing […] and 2 μM forskolin were added to each well containing 5,000 cells and incubated for 30 minutes at room temperature. Subsequently, cAMP D2 reagent was added in the lysis buffer followed by the EuK antibody (Cisbio; cat #62AM4PEJ) and incubated for 60 min. The fluorescence emission ratio was measured using fluorometer. The intracellular cAMP concentrations (compound-stimulated inhibition of forskolin-mediated cAMP production) were calculated by extrapolation from a standard curve using known cAMP concentrations. The EC50 values were obtained by fitting the data to a sigmoidal concentration-response curve with variable slope.
The EC50 value of each compound is presented at the end of the example description.
The biological activity of the exemplified compounds of this invention determined by the assay described above is shown at the end of each example.

Sequence of human APJ receptor (P35414 whole entry): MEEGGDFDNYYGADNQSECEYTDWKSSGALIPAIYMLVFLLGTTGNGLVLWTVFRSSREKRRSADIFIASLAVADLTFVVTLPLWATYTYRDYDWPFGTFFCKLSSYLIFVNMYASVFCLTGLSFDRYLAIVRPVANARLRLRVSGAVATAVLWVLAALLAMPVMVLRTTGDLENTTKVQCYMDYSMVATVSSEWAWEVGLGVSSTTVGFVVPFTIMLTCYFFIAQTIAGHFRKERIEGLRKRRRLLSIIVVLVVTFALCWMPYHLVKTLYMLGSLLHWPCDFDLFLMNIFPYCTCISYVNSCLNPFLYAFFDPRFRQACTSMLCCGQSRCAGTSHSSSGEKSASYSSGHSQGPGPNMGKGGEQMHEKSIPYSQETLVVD

Row | EC50 | Compound
1 | 0.01 to 10 nM | CCCCc1nc(=O)c(S(=O)(=O)c2ccc(Br)cc2)c(O)n1-c1c(OC)cccc1OC [Example 1, 5-((4-Bromophenyl)sulfonyl)-2-butyl-1-(2,6-dimethoxyphenyl)-6-hydroxypyrimidin-4(1H)-one]
2 | 0.01 to 10 nM | CCCCc1nc(=O)c(S(=O)(=O)c2ccc(-c3ccc(F)cc3)cc2)c(O)n1-c1c(OC)cccc1OC [Example 7, 2-Butyl-1-(2,6-dimethoxyphenyl)-5-((4′-fluoro-[1,1′-biphenyl]-4-yl)sulfonyl)-6-hydroxypyrimidin-4(1H)-one]

same assay, conditions: human APJ, cAMP accumulation; read-out: Human APJ cAMP EC50 Potency range

Row | EC50 | Compound
3 | 0.01 to 10 nM | COC[C@@H](c1ccccc1)n1c(C2CCCO2)nc(=O)c(S(=O)(=O)c2ccc(-c3ccnc(F)c3C)cc2)c1O (mixture of isomers) [Example 353, 5-[4-(2-fluoro-3-methylpyridin-4-yl)benzenesulfonyl]-6-hydroxy-1-[(1R)-2-methoxy-1-phenylethyl]-2-(oxolan-2-yl)-1,4-dihydropyrimidin-4-one]
4 | 0.01 to 10 nM | COC[C@@H](c1ccccc1)n1c(C2CCCO2)nc(=O)c(S(=O)(=O)c2ccc(-c3ccc(F)nc3)cc2)c1O (mixture of isomers) [Example 354, 5-[4-(6-fluoropyridin-3-yl)benzenesulfonyl]-6-hydroxy-1-[(1R)-2-methoxy-1-phenylethyl]-2-(oxolan-2-yl)-1,4-dihydropyrimidin-4-one]
5 | 0.01 to 10 nM | COC[C@@H](c1ccccc1)n1c(C2CCCO2)nc(=O)c(S(=O)(=O)c2ccc(-c3ccc(F)nc3C)cc2)c1O (mixture of isomers) [Example 355, 5-[4-(6-fluoro-2-methylpyridin-3-yl)benzenesulfonyl]-6-hydroxy-1-[(1R)-2-methoxy-1-phenylethyl]-2-(oxolan-2-yl)-1,4-dihydropyrimidin-4-one]
6 | 0.01 to 10 nM | COC[C@@H](c1ccccc1)n1c(C2CCCO2)nc(=O)c(S(=O)(=O)c2ccc(-c3ccncc3C)cc2)c1O (single isomer, unassigned) [Example 350]
7 | 0.01 to 10 nM | COC[C@@H](c1ccccc1)n1c(C2CCCO2)nc(=O)c(S(=O)(=O)c2ccc(-c3ccncc3C)cc2)c1O (single isomer, unassigned) [Example 351]
8 | 0.01 to 10 nM | COC[C@@H](c1ccccc1)n1c(C2CCCO2)nc(=O)c(S(=O)(=O)c2ccc(-c3ccncc3C)cc2)c1O (single isomer, unassigned) [Example 352]
9 | 0.01 to 10 nM | COC[C@@H](c1ccccc1)n1c(C2CCCO2)nc(=O)c(S(=O)(=O)c2ccc(-c3ccc(F)nc3C)cc2)c1O (single isomer, unassigned) [Example 356]
10 | 0.01 to 10 nM | COC[C@@H](c1ccccc1)n1c(C2CCCO2)nc(=O)c(S(=O)(=O)c2ccc(-c3ccc(F)nc3C)cc2)c1O (single isomer, unassigned) [Example 357]
11 | 0.01 to 10 nM | COC[C@@H](c1ccccc1)n1c(C2CCCO2)nc(=O)c(S(=O)(=O)c2ccc(-c3ccc(F)nc3)cc2)c1O (single isomer, unassigned) [Example 358]
12 | 0.01 to 10 nM | COC[C@@H](c1ccccc1)n1c(C2CCCO2)nc(=O)c(S(=O)(=O)c2ccc(-c3ccc(F)nc3)cc2)c1O (single isomer, unassigned) [Example 359]

same assay, conditions: human APJ, intracellular cAMP accumulation; read-out: Human APJ cAMP EC50 Potency range

Row | Compound | EC50
13 | 5-(4- bromobenzenesulfonyl)- 2-butyl-3- [cyclopropyl(phenyl) methyl]-6-hydroxy-3,4- dihydropyrimidin-4-one [Example 186] | 10 to 100 nM
14 | 5-(4- bromobenzenesulfonyl)- 2-butyl-3-[(1S)-1-(3- chlorophenyl)propyl]-6- hydroxy-3,4- dihydropyrimidin-4-one [Example 188] | 10 to 100 nM
15 | CCCCc1nc(=O)c(S(=O)(=O)c2ccc(Cl)cc2)c(O)n1-c1c(OC)cccc1OC [Example 3, 2-butyl-5-(4-chlorobenzenesulfonyl)-1-(2,6-dimethoxyphenyl)-6-hydroxy-1,4-dihydropyrimidin-4-one] | 0.01 to 10 nM
16 | CCCCc1nc(=O)c(S(=O)(=O)c2ccc(F)cc2)c(O)n1-c1c(OC)cccc1OC [Example 4, 2-butyl-1-(2,6-dimethoxyphenyl)-5-(4-fluorobenzenesulfonyl)-6-hydroxy-1,4-dihydropyrimidin-4-one] | 0.01 to 10 nM
17 | CCCCc1nc(=O)c(S(=O)(=O)Cc2ccccc2)c(O)n1-c1c(OC)cccc1OC [Example 5, 2-butyl-1-(2,6-dimethoxyphenyl)-6-hydroxy-5-phenylmethanesulfonyl-1,4-dihydropyrimidin-4-one] | 10 to 100 nM
18 | CCCCc1nc(=O)c(S(=O)(=O)c2ccc(C(F)(F)F)cn2)c(O)n1-c1c(OC)cccc1OC [Example 6, 2-butyl-1-(2,6-dimethoxyphenyl)-6-hydroxy-5-{[5-(trifluoromethyl)pyridin-2-yl]sulfonyl}-1,4-dihydropyrimidin-4-one] | 0.01 to 10 nM
19 | CCCCc1nc(=O)c(S(=O)(=O)c2ccc(-c3cn(C)nc3C(F)(F)F)cc2)c(O)n1-c1c(OC)cccc1OC [Example 9, 2-butyl-1-(2,6-dimethoxyphenyl)-6-hydroxy-5-{4-[1-methyl-3-(trifluoromethyl)-1H-pyrazol-4-yl]benzenesulfonyl}-1,4-dihydropyrimidin-4-one] | 0.01 to 10 nM
20 | COc1cccc(OC)c1-n1c(CCC(C)C)nc(=O)c(S(=O)(=O)c2cccc(-c3cn(C)nc3C(F)(F)F)c2)c1O [Example 20, 1-(2,6-dimethoxyphenyl)-6-hydroxy-5-{3-[1-methyl-3-(trifluoromethyl)-1H-pyrazol-4-yl]benzenesulfonyl}-2-(3-methylbutyl)-1,4-dihydropyrimidin-4-one] | 0.01 to 10 nM

Now from value to compound:

Row | EC50 | Compound
21 | 0.01 to 10 nM | CCCCc1nc(=O)c(S(=O)(=O)c2ccccc2)c(O)n1-c1c(OC)cccc1OC [Example 2, 5-(benzenesulfonyl)-2-butyl-1-(2,6-dimethoxyphenyl)-6-hydroxy-1,4-dihydropyrimidin-4-one]
22 | 0.01 to 10 nM | CCCCc1nc(=O)c(S(=O)(=O)c2ccc(-c3ccccc3)cc2)c(O)n1-c1c(OC)cccc1OC [Example 8, 2-butyl-1-(2,6-dimethoxyphenyl)-6-hydroxy-5-(4-phenylbenzenesulfonyl)-1,4-dihydropyrimidin-4-one]
23 | 0.01 to 10 nM | CCCCc1nc(=O)c(S(=O)(=O)c2ccc(-c3cnn(C(C)C)c3)cc2)c(O)n1-c1c(OC)cccc1OC [Example 10, 2-butyl-1-(2,6-dimethoxyphenyl)-6-hydroxy-5-{4-[1-(propan-2-yl)-1H-pyrazol-4-yl]benzenesulfonyl}-1,4-dihydropyrimidin-4-one]
24 | 0.01 to 10 nM | COc1cccc(OC)c1-n1c(CCC(C)C)nc(=O)c(S(=O)(=O)c2ccc(-c3ccccc3)cc2)c1O [Example 11, 1-(2,6-dimethoxyphenyl)-6-hydroxy-2-(3-methylbutyl)-5-(4-phenylbenzenesulfonyl)-1,4-dihydropyrimidin-4-one]
25 | 0.01 to 10 nM | COc1cccc(OC)c1-n1c(CCC(C)C)nc(=O)c(S(=O)(=O)c2ccc(-c3ccc(F)cc3)cc2)c1O [Example 12, 1-(2,6-dimethoxyphenyl)-5-[4-(4-fluorophenyl)benzene-sulfonyl]-6-hydroxy-2-(3-methylbutyl)-1,4-dihydropyrimidin-4-one]
26 | 0.01 to 10 nM | COc1cccc(OC)c1-n1c(CCC(C)C)nc(=O)c(S(=O)(=O)c2ccc(-c3ccc(Cl)cc3)cc2)c1O [Example 14, 5-[4-(4-chlorophenyl)benzene-sulfonyl]-1-(2,6-dimethoxyphenyl)-6-hydroxy-2-(3-methylbutyl)-1,4-dihydropyrimidin-4-one]
27 | 0.01 to 10 nM | CCCCc1nc(=O)c(S(=O)(=O)c2ccc(-c3ccc(F)nc3)cc2)c(O)n1-c1c(OC)cccc1OC [Example 15, 2-butyl-1-(2,6-dimethoxyphenyl)-5-[4-(6-fluoropyridin-3-yl)benzenesulfonyl]-6-hydroxy-1,4-dihydropyrimidin-4-one]
28 | 0.01 to 10 nM | CCCCc1nc(=O)c(S(=O)(=O)c2ccc(-c3ccc(C#N)nc3)cc2)c(O)n1-c1c(OC)cccc1OC [Example 16, 5-(4-{[2-butyl-1-(2,6-dimethoxyphenyl)-6-hydroxy-4-oxo-1,4-dihydropyrimidin-5-yl]sulfonyl)phenyl)pyri-dine-2-carbonitrile]
29 | 0.01 to 10 nM | COc1cccc(OC)c1-n1c(CCC(C)C)nc(=O)c(S(=O)(=O)c2ccc(-c3ccc(C#N)nc3)cc2)c1O [Example 17, 5-(4-{[1-(2,6-dimethoxyphenyl)-6-hydroxy-2-(3-methylbutyl)-4-oxo-1,4-dihydropyrimidin-5-yl]sulfonyl}phenyl)pyri-dine-2-carbonitrile]
30 | 0.01 to 10 nM | COc1cccc(OC)c1-n1c(CCC(C)C)nc(=O)c(S(=O)(=O)c2cccc(-c3ccc(F)cc3)c2)c1O [Example 18, 1-(2,6-dimethoxyphenyl)-5-[3-(4-fluorophenyl)benzene-sulfonyl]-6-hydroxy-2-(3-methylbutyl)-1,4-dihydropyrimidin-4-one]
31 | 0.01 to 10 nM | COc1cccc(OC)c1-n1c(CCC(C)C)nc(=O)c(S(=O)(=O)c2cccc(-c3ccccc3)c2)c1O [Example 19, 1-(2,6-dimethoxyphenyl)-6-hydroxy-2-(3-methylbutyl)-5-(3-phenylbenzenesulfonyl)-1,4-dihydropyrimidin-4-one]
32 | 10 to 100 nM | COc1cccc(OC)c1-n1c(CCC(C)C)nc(=O)c(S(=O)(=O)c2ccccc2-c2ccc(F)cc2)c1O [Example 21, 1-(2,6-dimethoxyphenyl)-5-[2-(4-fluorophenyl)benzene-sulfonyl]-6-hydroxy-2-(3-methylbutyl)-1,4-dihydropyrimidin-4-one]
